Paper PMC8304660, “Identification of Erythromycin and Clarithromycin Metabolites Formed in Chicken Liver Microsomes Using Liquid Chromatography–High-Resolution Mass Spectrometry” (Foods, 2021)
Where “and” joins values, the source holds several entries; their conditions need not be identical. Equal entries are not always repeated.

Columns and labels:
[1] = In vitro incubation in chicken liver microsomes with or without NADPH, LC/ESI-HR-MS analysis; format: in vitro ADME; conditions: for Remaining Content −Cofactor, Mean ± SD (%) / Remaining Content (%) −Cofactor, 1 / Remaining Content (%) −Cofactor, 2 / Remaining Content (%) −Cofactor, 3 / Remaining Content +Cofactor, Mean ± SD (%) / Remaining Content (%) +Cofactor, 1 / Remaining Content (%) +Cofactor, 2 / Remaining Content (%) +Cofactor, 3: chicken liver microsomes (CLM), 60 min vs 0 min incubation; for Remaining Content −Cofactor, Mean ± SD (%) / Remaining Content (%) −Cofactor, 1 / Remaining Content (%) −Cofactor, 2 / Remaining Content (%) −Cofactor, 3: no NADPH (control); for Remaining Content −Cofactor, Mean ± SD (%) / Remaining Content +Cofactor, Mean ± SD (%): mean of 3; for Remaining Content (%) −Cofactor, 1 / Remaining Content (%) +Cofactor, 1: replicate 1; for Remaining Content (%) −Cofactor, 2 / Remaining Content (%) +Cofactor, 2: replicate 2; for Remaining Content (%) −Cofactor, 3 / Remaining Content (%) +Cofactor, 3: replicate 3; for Remaining Content +Cofactor, Mean ± SD (%) / Remaining Content (%) +Cofactor, 1 / Remaining Content (%) +Cofactor, 2 / Remaining Content (%) +Cofactor, 3: with NADPH cofactor; for Remaining Content (%) +Cofactor, 2: tested at 1 µM; for Remaining Content (%) +Cofactor, 3: tested at 1 µM; for Remaining Content (%) −Cofactor, 2: tested at 1 µM; for Remaining Content (%) −Cofactor, 3: tested at 1 µM; for Remaining Content +Cofactor, Mean ± SD (%): tested at 1 µM; for Remaining Content −Cofactor, Mean ± SD (%): tested at 1 µM
Experimental: The incubation system (100 μL) contained 65 μL of potassium phosphate buffer (0.1 M, pH 7.4), 20 μL of chicken liver microsomes (5 mg/mL), 5 μL of a compound (20 μM) and […]. After a 5 min preincubation period at 37 °C, the reaction was started by introducing 10 μL of NADPH (10 mM) as the cofactor solution. The final study groups were divided into cofactor and no cofactor (control) groups. After preincubation for 5 min, 10 μL of potassium phosphate buffer (0.1 M, pH 7.4) was added to the control group. […] For 0 min samples, the reaction was quenched immediately after the 5-min preincubation, followed by the addition of 10 μL of NADPH (10 mM) and 10 μL of potassium phosphate buffer (0.1 M, pH 7.4) to the cofactor and control groups, respectively. Following brief sonication (5 min) and vortexing (5 min), the mixtures were centrifuged for 30 min at 3000 rpm and 4 °C. The supernatant was transferred to an Agilent 96-well plate and then analysed on an Agilent 6530 Q-TOF LC-MS/MS instrument.
Liquid chromatographic separation and mass spectrometric detection were performed on an Agilent 1200 series HPLC system and an Agilent 6530 Q-TOF LC-MS/MS system equipped with a dual AJS ESI ion source. Chromatographic separation was performed on an Agilent Eclipse Plus C18 column (100 mm × 2.1 mm; i.d. 3.5 µm) by gradient elution with a mobile phase consisting of 0.1 vol.% formic acid in water (A) and ACN (B) at 40 °C: 0–2 min, 5 vol.% B; 2–3 min, 50 vol.% B; 3–4 min, 75 vol.% B; and 4-5 min, 5 vol.% B. The injection volume was 5 μL with a flow rate of 0.4 mL/min. Before sample injection, the instrument was equilibrated under the initial gradient conditions (A:B = 95:5, v/v) and the above-mentioned column temperature and flow rate conditions. HR-MS detection was carried out in positive ionization mode with the following ion source parameters: capillary voltage, 4000 V; drying gas, 12 L/min and 325 °C; nebulizer gas, 35 psi; and sheath gas, 10 L/min and 350 °C. Mass spectra were acquired in positive ion auto MS/MS mode (F, 100 V; CE, 0 eV) with a full scan range of m/z (100–1000) and a mass scan rate of 5 spectra/s. The mass spectrometer was run in an extended dynamic range mode with a mass range of m/z 50–3200. The mass resolving power was greater than 12,000 FWHM at m/z 1552.
The data were analysed using Agilent MassHunter Quantitative Analysis software (version B.05.00) and Agilent MassHunter Metabolite ID software (version B.04.00) (Santa Clara, CA, USA). The remaining content was evaluated by dividing the ratio of the response of the target compound to the response of the IS at 60 min of incubation by the ratio of the response of the target compound to the response of the IS at 0 min of incubation in the cofactor group or control group.

CYP3A4 = system: CYP3A4; design: method as in PMID 1732074, PMID 1976065; conditions: midazolam as the CYP3A4 substrate; cited from earlier work
P-GP = system: P-GP; design: method as in PMID 1732074, PMID 1976065; conditions: cited from earlier work

SMILES | Remaining Content −Cofactor, Mean ± SD (%) [1] [%] | Remaining Content (%) −Cofactor, 1 [1] [%] | Remaining Content (%) −Cofactor, 2 [1] [%] | Remaining Content (%) −Cofactor, 3 [1] [%] | Remaining Content +Cofactor, Mean ± SD (%) [1] | Remaining Content (%) +Cofactor, 1 [1] [%] | Remaining Content (%) +Cofactor, 2 [1] [%] | Remaining Content (%) +Cofactor, 3 [1] [%] | Formation of N-desmethyl metabolite ([1]; chicken liver microsomes, incubation for 60 min with NADPH cofactor, extracted ion chromatograms) | Strength of drug interaction (CYP3A4) | Inhibition of the activity of the drug transporter P-GP (P-GP)
O=C1CC2(CCCC2)CC(=O)N1CCCCN1CCN(c2ncccn2)CC1 [BUS, buspirone] | 81.5 ± 13.8 | 87.5 | 65.7 | 91.2 | 48.9% and 48.9 ± 4.5% | 46.4 | 46.2 | 54.1 | – | – | –
CC[C@H]1OC(=O)[C@H](C)[C@@H](O[C@H]2C[C@@](C)(OC)[C@@H](O)[C@H](C)O2)[C@H](C)[C@@H](O[C@@H]2O[C@H](C)C[C@H](N(C)C)[C@H]2O)[C@](C)(OC)C[C@@H](C)C(=O)[C@H](C)[C@@H](O)[C@]1(C)O [CLA, clarithromycin] | 86.6 ± 12.3 | 100.7 | 78.7 | 80.3 | 89.8% and 89.8 ± 21.5% | 77.5 | 77.3 | 114.7 | cannot produce N-desmethyl-clarithromycin | strong | do not inhibit
CC[C@H]1OC(=O)[C@H](C)[C@@H](O[C@H]2C[C@@](C)(OC)[C@@H](O)[C@H](C)O2)[C@H](C)[C@@H](O[C@@H]2O[C@H](C)C[C@H](N(C)C)[C@H]2O)[C@](C)(O)C[C@@H](C)C(=O)[C@H](C)[C@@H](O)[C@]1(C)O [ERY, erythromycin A] | 94.8 ± 6.3 | 99.0 | 97.9 | 87.6 | 86.6% and 86.6 ± 6.5% | 82.6 | 83.1 | 94.1 | – | – | –
